{"source": "patent US20190203207A1", "about": "“Anabolic Enhancers for Ameliorating Neurodegeneration” (priority 2016, published 2019)", "origin": "cited, not measured here", "tested_on": "insulin/mTOR signaling pathway", "note": "“Also recorded” adds a separate entry of the source."}
{"substance": "insulin", "values": [{"measurement": "GLUT1 and HIF1a levels", "setting": "insulin injection, four RP mouse models", "value": "increased levels"}, {"measurement": "Cone survival / cone degeneration", "setting": "systemic insulin, four RP mouse models (Punzo et al.)", "value": "encouraged cone survival; also recorded: delay degeneration of cones"}]}
